The text below walks through data of patent US10906915B2, “Substituted pyrazoloazepin-4-ones and their use as phosphodiesterase inhibitors” (LEO Pharma A/S, priority 2016, dated 2021).

Chain of human PDE4D catalytic domain (Q08499 380-740 limits assumed): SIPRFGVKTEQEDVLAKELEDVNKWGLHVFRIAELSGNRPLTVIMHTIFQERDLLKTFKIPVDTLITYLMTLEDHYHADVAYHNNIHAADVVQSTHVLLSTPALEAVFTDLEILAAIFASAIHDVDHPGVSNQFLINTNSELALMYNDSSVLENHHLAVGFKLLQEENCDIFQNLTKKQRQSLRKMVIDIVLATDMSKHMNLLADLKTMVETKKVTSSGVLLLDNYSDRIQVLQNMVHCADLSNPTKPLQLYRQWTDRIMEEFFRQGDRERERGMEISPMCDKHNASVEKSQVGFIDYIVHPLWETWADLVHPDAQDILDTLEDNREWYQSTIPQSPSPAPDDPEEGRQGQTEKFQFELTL

For the experiment, the target named is human PDE4D catalytic domain (UniProt no. Q08499) (Homo sapiens (Human), UniProt Q08499). The experiment can be described thus: PDE4 assay (TR-FRET, FAM-cAMP cleavage). The note with it: read-out: PDE4 IC50 range. It is filed as biochemical. The essentials:
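Read-out is time-resolved FRET from Tb donor to FAM-AMP captured on trivalent-metal nanoparticles added to stop the reaction. Substrate was a mix of plain and FAM-labelled cAMP, cleaved by human PDE4D catalytic domain ([…]) with titrated compound; IC50 ranges (nM) versus controls.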
With `CCc1nn(CC(C)(C)COC(=O)c2ccc(S(=O)(=O)N3CCOCC3)cc2)c2c1C(=O)NCC1(CCOCC1)C2` [Example 322, [3-(3-ethyl-4-oxo-spiro[6,8-dihydro-5H-pyrazolo[4,3-c]azepine-7,4′-tetrahydropyran]-1-yl)-2,2-dimethyl-propyl] 4-morpholinosulfonylbenzoate], the IC50 was < 100 nM.

`CCc1nn(CC(C)(C)COC(=O)c2cccc(S(=O)(=O)N3CCOCC3)c2)c2c1C(=O)NCC1(CCOCC1)C2` [Example 323, [3-(3-ethyl-4-oxo-spiro[6,8-dihydro-5H-pyrazolo[4,3-c]azepine-7,4′-tetrahydropyran]-1-yl)-2,2-dimethyl-propyl] 3-morpholinosulfonylbenzoate]: the IC50 was < 100 nM.

As for `CCc1nn(CC(C)(C)COC(=O)c2ccc(S(=O)(=O)N3CCN(C(C)=O)CC3)cc2)c2c1C(=O)NCC1(CCOCC1)C2` [Example 324, [3-(3-ethyl-4-oxo-spiro[6,8-dihydro-5H-pyrazolo[4,3-c]azepine-7,4′-tetrahydropyran]-1-yl)-2,2-dimethyl-propyl] 4-(4-acetylpiperazin-1-yl)sulfonylbenzoate], the half-inhibitory concentration (IC50) was < 100 nM.

Take `CCc1nn(CC(C)(C)COC(=O)c2cccc(S(=O)(=O)N3CCN(C(C)=O)CC3)c2)c2c1C(=O)NCC1(CCOCC1)C2` [Example 325, [3-(3-ethyl-4-oxo-spiro[6,8-dihydro-5H-pyrazolo[4,3-c]azepine-7,4′-tetrahydropyran]-1-yl)-2,2-dimethyl-propyl] 3-(4-acetylpiperazin-1-yl)sulfonylbenzoate]: the IC50 is < 100 nM.

As for `CCc1nn(CC(C)(C)COC(=O)c2ccc(C(N)=O)cc2)c2c1C(=O)NCC1(CCOCC1)C2` [Example 328, [3-(3-ethyl-4-oxo-spiro[6,8-dihydro-5H-pyrazolo[4,3-c]azepine-7,4′-tetrahydropyran]-1-yl)-2,2-dimethyl-propyl] 4-carbamoylbenzoate], the IC50 is < 100 nM.

Consider `CCc1nn(CC(C)(C)COC(=O)c2ccc(C(=O)NC)cc2)c2c1C(=O)NCC1(CCOCC1)C2` [Example 329, [3-(3-ethyl-4-oxo-spiro[6,8-dihydro-5H-pyrazolo[4,3-c]azepine-7,4′-tetrahydropyran]-1-yl)-2,2-dimethyl-propyl] 4-(methylcarbamoyl)benzoate], for which the IC50 is < 100 nM.

`CCNC(=O)c1ccc(C(=O)OCC(C)(C)Cn2nc(CC)c3c2CC2(CCOCC2)CNC3=O)cc1` [Example 330, [3-(3-ethyl-4-oxo-Spiro[6,8-dihydro-5H-pyrazolo[4,3-c]azepine-7,4′-tetrahydropyran]-1-yl)-2,2-dimethyl-propyl] 4-(ethylcarbamoyl)benzoate]: the IC50 was < 100 nM.

As to `CCc1nn(CC(C)(C)COC(=O)c2ccc(C(=O)N(C)C)cc2)c2c1C(=O)NCC1(CCOCC1)C2` [Example 331, [3-(3-ethyl-4-oxo-spiro[6,8-dihydro-5H-pyrazolo[4,3-c]azepine-7,4′-tetrahydropyran]-1-yl)-2,2-dimethyl-propyl] 4-(dimethylcarbamoyl)benzoate], the IC50 is < 100 nM.

Take `CCc1nn(CC(C)(C)COC(=O)c2ccc(C(=O)NC(C)C)cc2)c2c1C(=O)NCC1(CCOCC1)C2` [Example 332, [3-(3-ethyl-4-oxo-spiro[6,8-dihydro-5H-pyrazolo[4,3-c]azepme-7,4′-tetrahydropyran]-1-yl)-2,2-dimethyl-propyl] 4-(isopropylcarbamoyl)benzoate]: the IC50 is < 100 nM.

With `CCc1nn(CC(C)(C)COC(=O)c2ccc(C(=O)N3CCCC3)cc2)c2c1C(=O)NCC1(CCOCC1)C2` [Example 333, [3-(3-ethyl-4-oxo-spiro[6,8-dihydro-5H-pyrazolo[4,3-c]azepine-7,4′-tetrahydropyran]-1-yl)-2,2-dimethyl-propyl] 4-(pyrrolidine-1-carbonyl)benzoate], the IC50 was < 100 nM.

In the case of `CCc1nn(CC(C)(C)COC(=O)c2ccc(C(=O)N3CCCCC3)cc2)c2c1C(=O)NCC1(CCOCC1)C2` [Example 334, [3-(3-ethyl-4-oxo-spiro[6,8-dihydro-5H-pyrazolo[4,3-c]azepine-7,4′-tetrahydropyran]-1-yl)-2,2 dimethyl-propyl] 4-(piperidine-1-carbonyl)benzoate], the IC50 was < 100 nM.

As for `CCc1nn(CC(C)(C)COC(=O)c2ccc(C(=O)N3CCNCC3)cc2)c2c1C(=O)NCC1(CCOCC1)C2` [Example 335, [3-(3-ethyl-4-oxo-spiro[6,8-dihydro-5H-pyrazolo[4,3-c]azepine-7,4′-tetrahydropyran]-1-yl)-2,2-dimethyl-propyl] 4-(piperazine-1-carbonyl)benzoate], the IC50 is < 100 nM.

For `CCc1nn(CC(C)(C)COC(=O)c2ccc(C(=O)N3CCOCC3)cc2)c2c1C(=O)NCC1(CCOCC1)C2` [Example 336, [3-(3-ethyl-4-oxo-spiro[6,8-dihydro-5H-pyrazolo[4,3-c]azepine-7,4′-tetrahydropyran]-1-yl)-2,2-dimethyl-propyl] 4-(morpholine-4-carbonyl)benzoate], the IC50 was < 100 nM.

Regarding `CCc1nn(CC(C)(C)COC(=O)c2ccc(C(=O)N3CCN(C)CC3)cc2)c2c1C(=O)NCC1(CCOCC1)C2` [Example 337, [3-(3-ethyl-4-oxo-spiro[6,8-dihydro-5H-pyrazolo[4,3-c]azepine-7,4′-tetrahydropyran]-1-yl)-2,2-dimethyl-propyl] 4-(4-methylpiperazine-1-carbonyl)benzoate], the IC50 is < 100 nM.

Consider `CCc1nn(CC(C)(C)COC(=O)c2ccc(C(=O)N3CCN(C(C)=O)CC3)cc2)c2c1C(=O)NCC1(CCOCC1)C2` [Example 338, [3-(3-ethyl-4-oxo-spiro[6,8-dihydro-5H-pyrazolo[4,3-c]azepine-7,4′-tetrahydropyran]-1-yl)-2,2-dimethyl-propyl] 4-(4-acetylpiperazine-1-carbonyl)benzoate], for which the IC50 was < 100 nM.

As to `CCc1nn(CC(C)(C)COC(=O)c2cccc(C(=O)NC)c2)c2c1C(=O)NCC1(CCOCC1)C2` [Example 340, [3-(3-ethyl-4-oxo-spiro[6,8-dihydro-5H-pyrazolo[4,3-c]azepine-7,4′-tetrahydropyran]-1-yl)-2,2-dimethyl-propyl] 3-(methylcarbamoyl)-benzoate], the IC50 was < 100 nM.

Consider `CCNC(=O)c1cccc(C(=O)OCC(C)(C)Cn2nc(CC)c3c2CC2(CCOCC2)CNC3=O)c1` [Example 341, [3-(3-ethyl-4-oxo-spiro[6,8-dihydro-5H-pyrazolo[4,3-c]azepine-7,4′-tetrahydropyran]-1-yl)-2,2-dimethyl-propyl] 3-(ethylcarbamoyl)-benzoate], for which the IC50 is < 100 nM.

Turning to `CCc1nn(CC(C)(C)COC(=O)c2cccc(C(=O)N(C)C)c2)c2c1C(=O)NCC1(CCOCC1)C2` [Example 342, [3-(3-ethyl-4-oxo-spiro[6,8-dihydro-5H-pyrazolo[4,3-c]azepine-7,4′-tetrahydropyran]-1-yl)-2,2-dimethyl-propyl] 3-(dimethylcarbamoyl)-benzoate], the half-inhibitory concentration (IC50) is < 100 nM.

Take `CCc1nn(CC(C)(C)COC(=O)c2cccc(C(=O)NC(C)C)c2)c2c1C(=O)NCC1(CCOCC1)C2` [Example 343, [3-(3-ethyl-4-oxo-spiro[6,8-dihydro-5H-pyrazolo[4,3-c]azepine-7,4′-tetrahydropyran]-1-yl)-2,2-dimethyl-propyl] 3-(isopropylcarbamoyl)-benzoate]: the IC50 was < 100 nM.
